Assay results reported in patent publication US20260159536A1, “AKR1C3-ACTIVATED DNA ALKYLATING AGENT, AND MEDICAL APPLICATION THEREOF” (ASCENTAWITS PHARMACEUTICALS, LTD., priority 2021, published 2026).

Columns and labels:
SNU354 = assay: Cytotoxicity on hepatocellular carcinoma cell line SNU354; format: cell-based
Method: If not otherwise specified, IC50 values were measured by the following experimental methods:
a) Cells were plated for 24 hours, and then the compounds acted singly. 99 μL of growth medium was supplemented per well, and then 1 μL of 200× compound was added, gently shaken to ensure uniform mixing, and then placed in a 37° C., 5% CO2 incubator.
b) The cell plate was placed in the incubator for 72 hours.
b) 100 μL of CTG reagent (CelltiterGlo kit) was added to each well, the plate was placed in a rapid oscillator and shaken for 2 minutes, and then placed at room temperature for 30 minutes away from light.
The IC50 was calculated using GraphPad Prism 8 software and the IC50 (half inhibitory concentration) of the compounds was obtained using the following non-linear fitting formula: […]
Using the same experimental methods as described above, Compounds A, B and C were further tested for cytotoxicity against different hepatocellular carcinoma (HCC) cell lines SNU354, SNU886, MHCC97H and huH-1, and the results were shown in Table 2 below: […]

[1] = tested on: human liver cancer LI6652; assay: In vivo pharmacodynamics, liver cancer LI6652 subcutaneous xenograft PDX model; set-up: species or system BALB/c nude mice; settings: for Relative tumor volume (x ± S) / T/C (%) / TGI (%) / Tumor volume (x ± S): 2 weeks off, 2 cycles
Method: The pharmacodynamic analysis of each group in liver cancer LI6652 model was performed on Day 31 after administration, and the results were shown in Table 12.

[2] = tested on: HuPrime model LU0884 human lung cancer; assay: In vivo pharmacodynamics, lung cancer LU0884 PDX model; set-up: species or system BALB/c nude mice; settings: for T/C (%) / TGI (%) / Relative tumor volume (x ± S) / Tumor volume (x ± S): QWx3, i.v.; for Relative tumor volume (x ± S) / Tumor volume (x ± S): mean ± standard error; for Tumor volume (x ± S): in mm³ (unit assumed)
[3] = tested on: human lung cancer NCI-H460 cells; assay: In vivo pharmacodynamics, NCI-H460 subcutaneous xenograft model; set-up: species or system BALB/c nude mice; settings: for Relative tumor volume (x ± S) / T/C (%) / TGI (%) / Tumor volume (x ± S): QWx3, i.v.; for Tumor volume (x ± S): in mm³ (unit assumed)
[4] = 1.25 mg/kg i.p. QDx5, 2 days off, Day 28
[5] = 2.5 mg/kg i.p. QDx5, 2 days off, Day 28
[6] = 5 mg/kg i.p. QDx5, 2 days off, Day 28
[7] = Paclitaxel 20 mg/kg, Compound A 2.5, 5, 10 mg/kg

O=[N+]([O-])c1ccc(C(OP(=O)(N2CC2)N2CC2)C(F)(F)F)cc1Oc1ccc(-c2ccc(F)cc2)c(F)c1 (racemic) [Compound A]
IC50 (SNU354; Homo sapiens, SNU-354): 0.962 µM
ratio A/B (SNU354; IC50 ratio): 1.28
ratio A/C (SNU354; IC50 ratio): 0.63
Relative tumor volume (x ± S) [1, 4]: 0.18 ± 0.07
T/C (%) [1, 4]: 1.23%
TGI (%) [1, 4]: 98.77%
Tumor volume (x ± S) [1, 4]: 24.72 ± 9.57
Tumor volume ([1]; 1.25 mg/kg i.p., Day 0): 126.30 mm^3
Tumor volume ([1]; 1.25 mg/kg i.p., Day 3): 184.11 mm^3
Tumor volume ([1]; 1.25 mg/kg i.p., Day 7): 194.19 mm^3
Tumor volume ([1]; 1.25 mg/kg i.p., Day 10): 135.63 mm^3
Tumor volume ([1]; 1.25 mg/kg i.p., Day 14): 51.98 mm^3
Tumor volume ([1]; 1.25 mg/kg i.p., Day 17): 28.94 mm^3
Tumor volume ([1]; 1.25 mg/kg i.p., Day 21): 29.42 mm^3
Tumor volume ([1]; 1.25 mg/kg i.p., Day 24): 28.38 mm^3
Tumor volume ([1]; 1.25 mg/kg i.p., Day 28): 24.72 mm^3
Tumor volume ([1]; 1.25 mg/kg i.p., Day 31): 18.12 mm^3
Relative tumor volume (x ± S) [1, 5]: 0.17 ± 0.10
T/C (%) [1, 5]: 1.16%
TGI (%) [1, 5]: 98.84%
Tumor volume (x ± S) [1, 5]: 18.28 ± 8.14
Tumor volume ([1]; 2.5 mg/kg i.p., Day 0): 126.29 mm^3
Tumor volume ([1]; 2.5 mg/kg i.p., Day 3): 179.46 mm^3
Tumor volume ([1]; 2.5 mg/kg i.p., Day 7): 189.33 mm^3
Tumor volume ([1]; 2.5 mg/kg i.p., Day 10): 145.19 mm^3
Tumor volume ([1]; 2.5 mg/kg i.p., Day 14): 43.64 mm^3
Tumor volume ([1]; 2.5 mg/kg i.p., Day 17): 29.90 mm^3
Tumor volume ([1]; 2.5 mg/kg i.p., Day 21): 21.49 mm^3
Tumor volume ([1]; 2.5 mg/kg i.p., Day 24): 17.91 mm^3
Tumor volume ([1]; 2.5 mg/kg i.p., Day 28): 18.28 mm^3
Tumor volume ([1]; 2.5 mg/kg i.p., Day 31): 5.56 mm^3
Relative tumor volume (x ± S) [1, 6]: 0.02 ± 0.02
T/C (%) [1, 6]: 0.14%
Tumor volume (x ± S) [1, 6]: 3.38 ± 3.38
Tumor volume ([1]; 5 mg/kg i.p., Day 0): 124.83 mm^3
Tumor volume ([1]; 5 mg/kg i.p., Day 3): 174.91 mm^3
Tumor volume ([1]; 5 mg/kg i.p., Day 7): 190.90 mm^3
Tumor volume ([1]; 5 mg/kg i.p., Day 10): 130.55 mm^3
Tumor volume ([1]; 5 mg/kg i.p., Day 14): 34.29 mm^3
Tumor volume ([1]; 5 mg/kg i.p., Day 17): 19.84 mm^3
Tumor volume ([1]; 5 mg/kg i.p., Day 21): 13.80 mm^3
Tumor volume ([1]; 5 mg/kg i.p., Day 24): 12.20 mm^3
Tumor volume ([1]; 5 mg/kg i.p., Day 28): 3.38 mm^3
Tumor volume ([1]; 5 mg/kg i.p., Day 31): 2.62 mm^3
relative tumor inhibition TGI (%) ([1]; 1.25, 2.5, 5 mg/kg i.p.): exceeding 98%
effect on body weight ([1]; 1.25, 2.5, 5 mg/kg, at least 28 days): no significant effect on the body weight
T/C (%) ([2]; Compound A 2.5 mg/kg, Day 28): 57.85%
TGI (%) ([2]; Compound A 2.5 mg/kg, Day 28): 42.15%
Relative tumor volume (x ± S) ([2]; Compound A 2.5 mg/kg, Day 28): 3.47 ± 0.56
Tumor volume (x ± S) ([2]; Compound A 2.5 mg/kg, Day 28): 360.43 ± 44.42
T/C (%) ([2]; Compound A 5 mg/kg, Day 28): 43.62%
TGI (%) ([2]; Compound A 5 mg/kg, Day 28): 56.38%
Relative tumor volume (x ± S) ([2]; Compound A 5 mg/kg, Day 28): 2.61 ± 0.94
Tumor volume (x ± S) ([2]; Compound A 5 mg/kg, Day 28): 291.60 ± 103.85
T/C (%) ([2]; Compound A 10 mg/kg, Day 28): 63.02%
TGI (%) ([2]; Compound A 10 mg/kg, Day 28): 36.98%
Relative tumor volume (x ± S) ([2]; Compound A 10 mg/kg, Day 28): 3.78 ± 1.19
Tumor volume (x ± S) ([2]; Compound A 10 mg/kg, Day 28): 434.80 ± 160.03
Size of tumor volume ([2]; Group 4, Compound A 2.5 mg/kg, Day 0): 109.86 mm^3
Size of tumor volume ([2]; Group 4, Compound A 2.5 mg/kg, Day 4): 138.21 mm^3
Size of tumor volume ([2]; Group 4, Compound A 2.5 mg/kg, Day 7): 177.96 mm^3
Size of tumor volume ([2]; Group 4, Compound A 2.5 mg/kg, Day 11): 194.38 mm^3
Size of tumor volume ([2]; Group 4, Compound A 2.5 mg/kg, Day 14): 216.81 mm^3
Size of tumor volume ([2]; Group 4, Compound A 2.5 mg/kg, Day 18): 261.94 mm^3
Size of tumor volume ([2]; Group 4, Compound A 2.5 mg/kg, Day 21): 287.79 mm^3
Size of tumor volume ([2]; Group 4, Compound A 2.5 mg/kg, Day 25): 328.61 mm^3
Size of tumor volume ([2]; Group 4, Compound A 2.5 mg/kg, Day 28): 360.43 mm^3
Size of tumor volume ([2]; Group 5, Compound A 5 mg/kg, Day 0): 110.67 mm^3
Size of tumor volume ([2]; Group 5, Compound A 5 mg/kg, Day 4): 173.28 mm^3
Size of tumor volume ([2]; Group 5, Compound A 5 mg/kg, Day 7): 221.81 mm^3
Size of tumor volume ([2]; Group 5, Compound A 5 mg/kg, Day 11): 229.45 mm^3
Size of tumor volume ([2]; Group 5, Compound A 5 mg/kg, Day 14): 236.47 mm^3
Size of tumor volume ([2]; Group 5, Compound A 5 mg/kg, Day 18): 260.75 mm^3
Size of tumor volume ([2]; Group 5, Compound A 5 mg/kg, Day 21): 271.59 mm^3
Size of tumor volume ([2]; Group 5, Compound A 5 mg/kg, Day 25): 289.40 mm^3
Size of tumor volume ([2]; Group 5, Compound A 5 mg/kg, Day 28): 291.60 mm^3
Size of tumor volume ([2]; Group 6, Compound A 10 mg/kg, Day 0): 109.04 mm^3
Size of tumor volume ([2]; Group 6, Compound A 10 mg/kg, Day 4): 202.09 mm^3
Size of tumor volume ([2]; Group 6, Compound A 10 mg/kg, Day 7): 257.40 mm^3
Size of tumor volume ([2]; Group 6, Compound A 10 mg/kg, Day 11): 283.55 mm^3
Size of tumor volume ([2]; Group 6, Compound A 10 mg/kg, Day 14): 293.14 mm^3
Size of tumor volume ([2]; Group 6, Compound A 10 mg/kg, Day 18): 343.92 mm^3
Size of tumor volume ([2]; Group 6, Compound A 10 mg/kg, Day 21): 359.85 mm^3
Size of tumor volume ([2]; Group 6, Compound A 10 mg/kg, Day 25): 411.01 mm^3
Size of tumor volume ([2]; Group 6, Compound A 10 mg/kg, Day 28): 434.80 mm^3
tolerability [2, 7]: well tolerated
tumor inhibitory effect [2, 7]: certain tumor inhibitory effects
Tumor volume ([3]; 5 mg/kg i.v., Day 7): 144.35 mm^3
Tumor volume ([3]; 5 mg/kg i.v., Day 10): 183.15 mm^3
Tumor volume ([3]; 5 mg/kg i.v., Day 14): 198.80 mm^3
Tumor volume ([3]; 5 mg/kg i.v., Day 17): 228.87 mm^3
Tumor volume ([3]; 5 mg/kg i.v., Day 21): 253.30 mm^3
Tumor volume ([3]; 5 mg/kg i.v., Day 24): 310.83 mm^3
Tumor volume ([3]; 5 mg/kg i.v., Day 28): 279.31 mm^3
Tumor volume ([3]; 5 mg/kg i.v., Day 31): 337.78 mm^3
Tumor volume ([3]; 5 mg/kg i.v., Day 35): 452.75 mm^3
Relative tumor volume (x ± S) ([3]; 5 mg/kg, Day 31): 2.45 ± 0.29
T/C (%) ([3]; 5 mg/kg, Day 31): 18.51%
TGI (%) ([3]; 5 mg/kg, Day 31): 81.49%
Tumor volume (x ± S) ([3]; 5 mg/kg, Day 31): 337.78 ± 54.37
Tumor volume ([3]; 10 mg/kg i.v., Day 7): 144.21 mm^3
Tumor volume ([3]; 10 mg/kg i.v., Day 10): 164.75 mm^3
Tumor volume ([3]; 10 mg/kg i.v., Day 14): 151.95 mm^3
Tumor volume ([3]; 10 mg/kg i.v., Day 17): 140.29 mm^3
Tumor volume ([3]; 10 mg/kg i.v., Day 21): 138.66 mm^3
Tumor volume ([3]; 10 mg/kg i.v., Day 24): 144.36 mm^3
Tumor volume ([3]; 10 mg/kg i.v., Day 28): 149.16 mm^3
Tumor volume ([3]; 10 mg/kg i.v., Day 31): 164.13 mm^3
Tumor volume ([3]; 10 mg/kg i.v., Day 35): 168.68 mm^3
Relative tumor volume (x ± S) ([3]; 10 mg/kg, Day 31): 1.18 ± 0.27
TGI (%) ([3]; 10 mg/kg, Day 31): 91.06%
Tumor volume ([3]; 15 mg/kg i.v., Day 7): 145.41 mm^3
Tumor volume ([3]; 15 mg/kg i.v., Day 10): 171.22 mm^3
Tumor volume ([3]; 15 mg/kg i.v., Day 14): 167.54 mm^3
Tumor volume ([3]; 15 mg/kg i.v., Day 17): 161.80 mm^3
Tumor volume ([3]; 15 mg/kg i.v., Day 21): 157.66 mm^3
Tumor volume ([3]; 15 mg/kg i.v., Day 24): 151.20 mm^3
Tumor volume ([3]; 15 mg/kg i.v., Day 28): 134.73 mm^3
Tumor volume ([3]; 15 mg/kg i.v., Day 35): 108.70 mm^3
T/C (%) ([3]; 15 mg/kg, Day 31): 6.94%
Tumor volume (x ± S) ([3]; 15 mg/kg, Day 31): 125.90 ± 25.46
effect on body weights ([3]; 5, 10, 15 mg/kg, at least 31 days): no significant effect on the body weights
